Test results as given in US8435998B2, “Crystalline form of posaconazole” (Sandoz AG, priority 2008, dated 2013).
Converted amounts (≈) assume the structure as drawn. “And” between values parts separate entries of the source, which are not always exact repeats. Equal entries are not always repeated. Blank lines part the entries; values can stand above or below the compound they belong to.

Assays:
[1] = Storage stability of the solid form (degradation or polymorphic conversion by HPLC, IR or XRPD); type: physicochemical
Protocol: Crystalline form IV is stable under storage conditions which are typical for pharmaceutical compositions and is thus suitable for the preparation of medicaments. Typical storage conditions are, for example, storage at ambient temperature, such as about 20° C. to about 30° C., for several months (e.g., for at least 5 months, preferably at least 12 months, more preferably at least 24 months) in a closed vial.
In experiments crystalline form IV was stable during storage for 63 days at ambient temperature. Even when stored for 4 weeks at 40° C., crystalline form IV was stable.
In this context, “stable” means that neither degradation nor polymorphic conversion to another polymorphic form of crystalline form IV can be detected, for example by HPLC, IR or XRPD analysis as defined herein.

[2] = Moisture sorption isotherm (SPS-11); type: physicochemical; conditions: 90% relative humidity, 25° C.
Protocol: The moisture sorption isotherm was recorded with a SPS-11 moisture sorption analyzer (MD Mess-technik, Ulm, D). The measurement cycle was started at 0% relative humidity (RH), increased in 10% steps up to 90% RH and in a 5% step up to 95% RH. The equilibrium condition for each step was set to a constant mass±0.003% over 49 min. The temperature was 25±0.1° C.
The water content of the obtained crystalline form IV was 2.43%. […] The maximum water content peaks at 3.7% at 90% relative humidity, which corresponds to a water mol ratio of 1.5 (FIG. 4).

[3] = Specific surface area, BET method with nitrogen (NOVA 2000); type: physicochemical; conditions: for Specific Surface Area: BET, nitrogen, 77° K
Text: The specific surface area of crystalline form IV of posaconazole as such, i.e. as obtained according to the herein described methods, is typically about 10-25 m^2/g±0.5 m^2/g, e.g. about 13-20 m^2/g±0.5 m^2/g, such as about 15-17 m^2/g±0.5 m^2/g, as measured according to the known Multi-Point-BET-method as herein described and as shown in Example 7. This specific surface area of crystalline form IV of posaconazole is about 10-fold larger when compared to that of known crystalline form I. It is known that the specific surface area between a solid and a liquid phase has a direct impact on the dissolution rate and thus on the bioavailability of the pharmaceutical ingredient as described e.g. by the equation by Nernst and Brunner as found in W. Nernst, Z. Phys. Chem. 47 (1904), pp. 52-55. […] Thus, crystalline form IV of posaconazole may advantageously be used as such, i.e. without being micronized, for preparing a pharmaceutical composition, e.g. a liquid suspension or dispersion as herein described—in contrast to known posaconazole forms which are micronized for use in such suspensions as e.g. described in WO 02/80678.
Specific surface area measurement was performed with the equipment NOVA 2000 as commercially available from Quantachrome Instruments using the BET method and Nitrogen as the absorbed gas at 77° K (i.e. −196.15° C.) as described e.g. by Medema J, Campagne A.: A Simple Method to Determine Cumulative Surface-Area Distributions of Porous Solids; Journal of Catalysis, Volume 8, Issue 2, pp. 120, 1967. Crystalline form IV of posaconazole was prepared according to Example 4. Crystalline form I was prepared by the method of example 3 described in U.S. Pat. No. 6,958,337.

[4] = Dissolution of suspensions, USP 32 method <711>, apparatus II (Paddle); type: physicochemical; conditions: 25 rpm, 0.3% SLS aqueous solution
Protocol: The liquid suspensions containing non-micronized crystalline form IV or non-micronized crystalline form I as well as the NOXAFIL® oral suspension containing micronized crystalline form I described in Example 8 were tested for their dissolution behaviour.
Dissolution was tested according to USP 32 (2009) method <711> (USP apparatus II (Paddle); 25 rpm; dissolution medium: 0.3% SLS aqueous solution). Posaconazole concentrations were determined with an online photometer (UV absorption at 260 nm).
The results are shown in Table 4 below wherein values are the amount of posaconazole dissolved in %, and in more detail in FIG. 6 wherein the amount of posaconazole dissolved in % is plotted versus time in minutes.

[5] = Equilibrium solubility method in water; type: physicochemical
Protocol: The solubility of crystalline form IV was determined by the equilibrium solubility method. A saturated solution of form IV, obtained by stirring 250 mg form IV in 6 ml water overnight, was prepared. The sample was filtered through a 0.45 μm membrane filter and the concentration of form IV in the filtrate was measured using a Perkin Elmer Lambda 35 UV/VIS spectrophotometer (λ=260 nm).

[6] = Stability of form IV in an aqueous pharmaceutical composition (XRPD); type: physicochemical; conditions: aqueous pharmaceutical suspension stirred at ambient temperature for 1 week
Protocol: The stability of form IV in an aqueous pharmaceutical composition was investigated. 240 mg form IV were suspended in a 4 ml aqueous suspension consisting of a mixture of 19 mg sodium benzoate, 3 mg citric acid, 19 mg xanthan gum, 60 mg Polysorbat 80, 600 mg glycerine and 2 g liquid glucose. The suspension was stirred at ambient temperature for 1 week.

[7] = Polymorphic stability suspended in water and stirred; type: physicochemical; conditions: suspended in water and stirred for 1 week at ambient temperature
[8] = Median particle size by laser diffraction (Malvern Mastersizer 2000S) in oral suspension; type: physicochemical; conditions: for Median particle size (d (0.5)-value): in suspension, laser diffraction after 5 min ultrasonic treatment
Text: The median particle size of crystalline form IV of posaconazole when used as such, i.e. in a non-micronized form for preparing a pharmaceutical composition in the form of a liquid suspension or dispersion as herein described, has been determined in samples taken from such suspension. Said median particle size is typically about 0.1-0.2 μm±0.05 μm, e.g. 0.14-0.17 μm, such as 0.15 μm, when measured with known laser diffraction methods, e.g. determination of the particle size distribution (Malvern) according to the US-Pharmacopeia (USP) 32 (2009) method <429> and to the European Pharmacopeia (EP) 6 (2008) method 2.9.31. based on the diffraction of laser by particles within the measurement volume (for details see Example 8). In the present invention, the term median particle size is understood to mean the d(0.5) value as determined according to the herein described laser diffraction methods.
Crystalline form IV as obtained by Example 4 was used to prepare 25 ml of a suspension as follows:
The suspension was prepared as follows: 40% of the final amount of Polysorbat 80 and 40% of the final amount of simethicone were mixed and dissolved and/or dispersed in about 12% of the final amount of purified water and homogenized with Ultra Turrax (30 seconds; 27,000 rpm). Subsequently, 1 g of the form IV of posaconazole, i.e. in its non-micronized form, were suspended or dispersed in this mixture under homogenization by Ultra Turrax (27,000 rpm, 2 minutes). The remaining 60% of Polysorbat 80 and of simethicone and 32% of the final amount of the purified water were added and mixed followed by the addition of sodium benzoate, sodium citrate dihydrate and citric acid monohydrate. After further mixing, xanthan gum was added to the mixture under stirring, followed by a 30 minutes phase of hydratization without mixing. Subsequently, glycerol and liquid glucose as well as titanium dioxide and the remaining portion of 56% of the final amount of purified water were added under mixing with a suitable homogenizer until a uniform suspension was obtained.
25 ml of a similar suspension were prepared analogously using non-micronized crystalline form I of posaconazole which was prepared by the method of example 3 described in U.S. Pat. No. 6,958,337.
Additionally, NOXAFIL® oral suspension (40 mg/ml) as commercially available from Medizone Germany GMBH (US product) was used to determine the particle size distribution of micronized form I of posaconazole which was contained in this known suspension.
The particle size distribution (Malvern) was measured according to the USP 32 (2009) method <429> and EP 6 (2008) method 2.9.31. based on the diffraction of laser by particles using a Mastersizer 2000S liquid dispersion system. The particle size measurement was started after ultrasonic treatment of the sample for 5 min.

[9] = cited from earlier work
[10] = on storage as micronised powder, during manufacture or as formulated in the finished product; cited from earlier work
[11] = WO 99/18097; cited from earlier work
[12] = listed as crystalline form IV of posaconazole

- stability during storage ([1]; 4 weeks at 40° C.): stable
- stability during storage ([1]; 63 days at ambient temperature): stable
- maximum water content (moisture sorption) [2]: 3.7%
- water mol ratio at maximum water content [2]: 1.5
- Specific Surface Area ([3]; listed as Crystalline Form IV of posaconazole): 15.5 m^2/g and 15.7 m^2/g
- Specific Surface Area [3, 12]: 10-25 m^2/g
- specific surface area relative to crystalline form I ([3]; larger than form I): about 10 fold
- amount of posaconazole dissolved ([4]; 3 min, listed as Crystalline Form IV non-micronized): 82%
- amount of posaconazole dissolved ([4]; 25 min, listed as Crystalline Form IV non-micronized): 100%
- solubility ([5]; thermodynamic from solid, saturated solution in water, stirred overnight, 0.45 μm filtered, UV 260 nm): 2.1 µg/mL (≈ 3 µM)
- solubility compared with form I ([5]; water, equilibrium solubility): more than two times higher
- stability in aqueous suspension (XRPD) [6]: remained stable
- Median particle size (d (0.5)-value) ([8]; listed as Crystalline Form IV (non-micronized)): 0.15 μm
- Median particle size (d (0.5)-value) [8, 12]: 0.1-0.2 μm
- median particle size relative to micronized form I ([8]; smaller than micronized form I): about 10 fold
- median particle size relative to non-micronized form I ([8]; smaller than non-micronized form I): about 90 fold
SMILES: CC[C@@H]([C@H](C)O)n1ncn(-c2ccc(N3CCN(c4ccc(OC[C@@H]5CO[C@@](Cn6cncn6)(c6ccc(F)cc6F)C5)cc4)CC3)cc2)c1=O [Crystalline Form IV, 2,5-anhydro-1,3,4-trideoxy-2-C-(2,4-difluorophenyl)-4-[[4-[4-[4-[1-[(1S,2S)-1-ethyl-2-hydroxypropyl]-1,5-dihydro-5-oxo-4H-1,2,4-triazol-4-yl]phenyl]-1-piperazinyl]phenoxy]methyl]-1-(1H-1,2,4-triazol-1-yl)-D-threo-pentitol]
- transformation into another form [7]: not susceptible to transformation into another form

SMILES: CC[C@@H]([C@H](C)O)n1ncn(-c2ccc(N3CCN(c4ccc(OC[C@@H]5CO[C@@](Cn6cncn6)(c6ccc(F)cc6F)C5)cc4)CC3)cc2)c1=O [posaconazole, 2,5-anhydro-1,3,4-trideoxy-2-C-(2,4-difluorophenyl)-4-[[4-[4-[4-[1-[(1S,2S)-1-ethyl-2-hydroxypropyl]-1,5-dihydro-5-oxo-4H-1,2,4-triazol-4-yl]phenyl]-1-piperazinyl]phenoxy]methyl]-1-(1H-1,2,4-triazol-1-yl)-D-threo-pentitol]
- log P [9]: > 3

- Specific Surface Area ([3]; listed as Crystalline Form I of posaconazole): 1.5 m^2/g and 1.6 m^2/g
- amount of posaconazole dissolved ([4]; 3 min, listed as Crystalline Form I non-micronized): 29%
- amount of posaconazole dissolved ([4]; 25 min, listed as Crystalline Form I non-micronized): 61%
- Median particle size (d (0.5)-value) ([8]; listed as Crystalline Form I (non-micronized)): 12.88 μm
SMILES: CC[C@@H]([C@H](C)O)n1ncn(-c2ccc(N3CCN(c4ccc(OC[C@@H]5CO[C@@](Cn6cncn6)(c6ccc(F)cc6F)C5)cc4)CC3)cc2)c1=O [Crystalline Form I, posaconazole]
- polymorphic transition [10]: no evidence of polymorphic transition

SMILES: CC[C@@H]([C@H](C)O)n1ncn(-c2ccc(N3CCN(c4ccc(OC[C@@H]5CO[C@@](Cn6cncn6)(c6ccc(F)cc6F)C5)cc4)CC3)cc2)c1=O [Crystalline form II, posaconazole]
- stability under the conditions investigated [11]: unstable
